Converted amounts (≈) assume the structure as drawn.
Tested on: M. tb.pFICTO-dapB
Assay: microbe, parasite or virus in culture
Format: cell-based, Mycobacterium tuberculosis

With COC(=O)CCCc1nc2ccccc2nc1N=Nc1ccccc1 [Compound B59, 4-(3-Phenylazoquinoxalin-2-yl) butanoic acid methyl ester] the “MIC99 in overexpressing strain relative to wild type” value (M. tb.pFICTO-dapB vs M. tb H37Rv) was 2 x MIC99 and the MIC99 (Mycobacterium tuberculosis, 168 h, M. tb.pFICTO-dapB, 7 days, read-out: MIC99 against DapB-overexpressing strain) was 40 µg/mL (≈ 120 µM).

Source: article PMC10714930, “In silico virtual screening for the identification of novel inhibitors against dihydrodipicolinate reductase (DapB) of Mycobacterium tuberculosis, a key enzyme of diaminopimelate pathway” (Microbiology Spectrum, 2023)
